Test results reported in patent publication US20200278355A1, “CONJUGATED PROTEINS AND USES THEREOF” (THE SCRIPPS RESEARCH INSTITUTE, priority 2017, published 2020).

Key:
NUDT8 = target: T1, NUDT8 (Homo sapiens, UniProt Q8WV74); experiment: ABPP-SILAC BPK-29yne competition in H460 cells: NUDT8; type: cell-based; conditions: 20 μM
T1 construct: H460 cells or H460 cells expressing luciferase in a 10 cm plate were incubated with indicated compounds; endogenous in cells; host or cells: H460
Procedure: Isotopically labeled H460 cell lines were generated as described above. Light and heavy cells were treated with compounds (20 μM) or DMSO, respectively, for 3 h, followed by labeling with the BPK-29yne (5 μM) for 30 min. Cells were washed once ice-cold PBS and lysed in 1% Triton 100-X dissolved in PBS with protease inhibitors (Sigma) by sonication. Lysate was adjusted to 1.5 mg ml^−1 in 500 μL. Samples were conjugated by CuAAC to Biotin-PEG4-azide (5 μL of 10 mM stocks in DMSO, final concentration=100 μM). CuAAC “click” mix contained TCEP, TBTA ligand and CuSO4 as detailed for isoTOP-ABPP sample preparation. Samples were further processed as detailed in: isoTOP-ABPP streptavidin enrichment and isoTOP-ABPP trypsin TEV digestion with the following exception: after overnight incubation at 37° C. with trypsin, tryptic digests were separated from the beads with Micro Bio-Spin columns (Bio-Rad) by centrifugation (1,000×g, 1 min). Beads were rinsed once with water (200 μL) and combined with tryptic digests. […]
The MS2 spectra data were extracted and searched using RAW Convertor and ProLuCID algorithm as described in isoTOP-ABPP peptide and protein quantification. […] Ratios of heavy/light (DMSO/test compound) peaks were calculated using in-house CIMAGE software. […] The mean R values and standard deviation for multiple biological experiments were calculated from the average ratios from each replicate. […]

TXN2 = target: T2, TXN2 (Homo sapiens, UniProt Q99757); experiment: isoTOP-ABPP of compound-treated H460 cells: TXN2; type: cell-based; conditions: TXN2 C90; 40 μM
T2 construct: H460 cells or H460 cells expressing luciferase in a 10 cm plate were incubated with indicated compounds; endogenous in cells; host or cells: H460
T2 sequence (Q99757 60-166): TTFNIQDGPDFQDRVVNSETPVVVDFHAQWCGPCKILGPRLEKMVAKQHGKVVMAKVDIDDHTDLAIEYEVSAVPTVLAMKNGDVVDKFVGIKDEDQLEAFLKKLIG
Procedure: For analysis of NR0B1 ligands or control compound reactivity, H460 cells or H460 cells expressing luciferase in a 10 cm plate were incubated with indicated compounds in serum/dye-free RPMI for 3 hours at 37° C. Cells were washed once ice-cold PBS and lysed in 1% Triton X-100 dissolved in PBS with protease inhibitors (Sigma) by sonication. Samples were clarified by centrifugation for 10 min at 16,000×g. Lysate was adjusted to 1.5 mg ml^−1 in 500 μL.
Samples were labeled for 1 h at ambient temperature with 100 μM iodoacetamide alkyne (1, IA-alkyne, 5 μL of 10 mM stock in DMSO). Samples were conjugated by copper-catalyzed azide-alkyne cycloaddition (CuAAC) to isotopically labeled, TEV-cleavable tags (TEV-tags). Heavy CuAAC reaction mixtures was added to the DMSO-treated or shGFP control samples and light CuAAC reaction mixture was added to compound-treated or shNRF2 samples. The CuAAC reaction mixture consisted of TEV tags (light or heavy, 10 μL of 5 mM stocks in DMSO, final concentration=100 μM), 1 mM tris(2-carboxyethyl)phosphine hydrochloride (TCEP; fresh 50× stock in water, final concentration=1 mM), ligand (17× stock in DMSO:t-butanol 1:4, final concentration=100 μM) and 1 mM CuSO4 (50× stock in water, final concentration=1 mM). The samples were allowed to react for 1 h at which point the samples were centrifuged (16,000×g, 5 min, 4° C.). […]

T1 sequence (Q8WV74 whole entry): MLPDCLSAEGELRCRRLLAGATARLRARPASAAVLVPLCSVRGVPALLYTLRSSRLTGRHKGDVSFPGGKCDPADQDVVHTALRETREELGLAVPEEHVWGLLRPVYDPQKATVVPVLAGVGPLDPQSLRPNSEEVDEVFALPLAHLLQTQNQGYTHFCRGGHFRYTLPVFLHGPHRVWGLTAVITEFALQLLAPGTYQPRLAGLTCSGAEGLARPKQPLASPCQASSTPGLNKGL

O=C(c1ccc(N2CCOCC2)cc1)N1CCCC(N(Cc2ccccc2)C(=O)CCl)CC1 (centres unmarked) [BPK-29, N-benzyl-2-chloro-N-(1-(4-morpholinobenzoyl)azepan-4-yl)acetamide]
BPK-29-competed BPK-29yne analysis (NUDT8): Yes (Competed defined as showing R value ≥ 2.5 at 20 μM of test compound) | BPK-29-competed isoTOP-ABPP analysis (TXN2): Yes (Competed defined as showing R value ≥ 3.0 at 40 μM of test compound)
